According to EP4722209A1 (Beijing Shenogen Pharma Group, priority 2023, dated 2024):

Tests used:
ERα = target: T1, ERα (Homo sapiens, UniProt P03372); test: ER degradation activity in MCF-7 cells (Western blot, grayscale intensity); assay type: cell-based; conditions: 6 hours treatment, 1 nM to 100 nM, concentration required to degrade 50% of the target protein
T1 construct: host or cells: MCF-7
T1 sequence (P03372 1-595): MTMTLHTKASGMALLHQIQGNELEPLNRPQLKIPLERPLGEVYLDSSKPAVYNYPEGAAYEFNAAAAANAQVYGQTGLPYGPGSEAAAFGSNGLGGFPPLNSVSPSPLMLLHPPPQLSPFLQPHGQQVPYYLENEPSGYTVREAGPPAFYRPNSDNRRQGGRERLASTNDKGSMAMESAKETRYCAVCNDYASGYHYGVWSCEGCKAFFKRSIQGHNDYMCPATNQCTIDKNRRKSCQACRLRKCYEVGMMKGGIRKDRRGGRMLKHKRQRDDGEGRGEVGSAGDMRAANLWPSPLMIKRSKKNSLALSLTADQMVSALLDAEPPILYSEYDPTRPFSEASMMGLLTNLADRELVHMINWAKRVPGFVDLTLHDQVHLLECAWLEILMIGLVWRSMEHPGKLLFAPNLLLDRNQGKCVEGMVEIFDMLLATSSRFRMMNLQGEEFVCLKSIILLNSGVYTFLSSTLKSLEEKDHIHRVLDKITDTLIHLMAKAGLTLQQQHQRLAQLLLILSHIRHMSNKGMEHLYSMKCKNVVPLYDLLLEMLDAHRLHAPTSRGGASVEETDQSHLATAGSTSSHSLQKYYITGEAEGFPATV
How it was run: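 MCF-7 cells were treated 24 h after seeding with test compounds at 1 nM to 100 nM final (0.2% DMSO) for 6 h at 37 °C. ERα in lysates (30 µg protein) was detected by Western blot with ECL; degradation was quantified from band grayscale intensity and DC50 derived.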

MCF-7 cells = test: Inhibition of MCF-7 cell proliferation (CellTiter-Glo cell viability); assay type: cell-based; conditions: Homo sapiens, MCF7, 144 h, 6 days treatment, 1 pM to 10 µM
Method: ERα-positive human breast cancer cells MCF-7 (ATCC, HTB-22) were cultured with EMEM medium (ATCC, catalog number 30-2003) containing 10% fetal bovine serum (Thermo Fisher, catalog number 10099141) and 10 µg/mL bovine insulin in 25 cm^2 or 75 cm^2 plastic tissue culture flasks in a 37 °C incubator with 5% CO2. The cells were passaged 2 to 3 times per week.
MCF-7 cells were seeded in 96-well plate at 3×10^3 cells/well with 90 µL culture medium per well, and cultured in a 37 °C incubator with 95% air and 5% CO2. After 24 hours, the test compounds were added: the compounds were serially diluted 10-fold in DMSO starting from 10 mM (dissolved in DMSO) to prepare gradient stock solutions. A complete culture medium containing 1% DMSO was prepared for further dilution, temporarily named as the "dilution buffer." Working solutions were prepared by diluting each stock solution with 99 times the volume of dilution buffer, that is, by adding 1 µL of the 10 mM stock solution to 99 µL of the dilution buffer and mixing thoroughly. Finally, 10 µL of the working solution was added to the cell-seeded culture plate. The final concentration of DMSO in the cell culture medium was 0.2%, and the final concentration of the test compounds ranged from 1 pM to 10 µM. The cells were then incubated at 37 °C for 3 days. The culture medium was removed and replaced with 90µL per well of fresh medium. According to the above compound dilution method, the test compounds were added again. On the 6th day, the CellTiter Glo luminescent cell viability assay kit (Promag, item number G7573) was added for cell viability measurement.
Cell viability was measured using the CellTiter-Glo assay kit, and the half-maximal growth inhibitory concentration (GI50) of the compounds was calculated using the Prism software.
The GI50 values (i.e., the concentration of the test compounds required to inhibit 50% of the cell proliferation) were calculated and shown in Table 2. A corresponds to a GI50 value below 10 nM, B corresponds to a GI50 value greater than 10 nM and less than 100 nM, and C corresponds to GI50 values greater than 100 nM. Table 2. The GI50 values of exemplary compounds in MCF-7 cells

In the case of CC1(C)CC(=C(c2ccc(N3CCC(CN4CCN(c5ccc(N6CCC(=O)NC6=O)cc5)CC4)CC3)nc2)c2ccc3[nH]nc(F)c3c2)CC(C)(C)O1 [Compound 77], the DC50 (ERα) is reported as > 100 nM and the GI50 (MCF-7 cells) is reported as > 100 nM.
For CC1(C)CC(=C(c2ccc(N3CCC(CNC4CCN(c5ccc6c(c5)CN(C5CCC(=O)NC5=O)C6=O)CC4)CC3)nc2)c2ccc3[nH]nc(F)c3c2)CC(C)(C)O1 (stereo not shown) [Compound 44], the DC50 (ERα) was < 10 nM and the GI50 (MCF-7 cells) was < 10 nM.
For CC1(C)CC(=C(c2ccc(N3CCC4(CC3)CC(N3CCN(c5ccc6c(c5)CN(C5CCC(=O)NC5=O)C6=O)CC3)C4)nc2)c2ccc3[nH]nc(F)c3c2)CC(C)(C)O1 (racemic) [Compound 35], the DC50 (ERα) was < 10 nM and the GI50 (MCF-7 cells) was < 10 nM.
For CC1(C)CC(=C(c2ccc(N3CCC(F)(CNC4CCN(c5ccc6c(c5)CN(C5CCC(=O)NC5=O)C6=O)CC4)CC3)nc2)c2ccc3[nH]nc(F)c3c2)CC(C)(C)O1 (stereo not shown) [Compound 48], the DC50 (ERα) was < 10 nM and the GI50 (MCF-7 cells) was < 10 nM.
With CC1(C)CC(=C(c2ccc(N3CCC(CN4CCN(c5ccc6c(c5)CN([C@@H]5CCC(=O)NC5=O)C6=O)CC4)CC3)nc2)c2ccc3[nH]nc(F)c3c2)CC(C)(C)O1 [Compound 119] the DC50 (ERα) was < 10 nM and the GI50 (MCF-7 cells) was < 10 nM.
With CC1(C)CC(=C(c2ccc(N3CCC(N4CCN(c5ccc6c(c5)CN(C5CCC(=O)NC5=O)C6=O)CC4)CC3)cc2)c2ccc3[nH]nc(F)c3c2)CC(C)(C)O1 (stereo not shown) [Compound 37] the DC50 (ERα) was 10 to 100 nM and the GI50 (MCF-7 cells) was < 10 nM.
With CC1(C)CC(=C(c2ccc(N3CCC(CN4CCN(c5ccc6c(c5)C(=O)N(C5CCC(=O)NC5=O)C6=O)CC4)CC3)cc2)c2ccc3[nH]nc(F)c3c2)CC(C)(C)O1 (stereo not shown) [Compound 6] the DC50 (ERα) was < 10 nM and the GI50 (MCF-7 cells) was < 10 nM.
With CC1(C)CC(=C(c2ccc(N3CCC4(CC3)CN(C3CCN(c5ccc6c(c5)CN(C5CCC(=O)NC5=O)C6=O)CC3)C4)nc2)c2ccc3[nH]nc(F)c3c2)CC(C)(C)O1 (stereo not shown) [Compound 47] the DC50 (ERα) was < 10 nM and the GI50 (MCF-7 cells) was < 10 nM.
CC1(C)CC(=C(c2ccc(N3CCN(C4CN(c5ccc6c(c5)C(=O)N(C5CCC(=O)NC5=O)C6=O)C4)CC3)cc2)c2ccc3[nH]nc(F)c3c2)CC(C)(C)O1 (stereo not shown) [Compound 2] was tested, and the DC50 (ERα) was < 10 nM and the GI50 (MCF-7 cells) was 10 to 100 nM.
With CC1(C)CC(=C(c2ccc(N3CCC(CN4CCN(c5ccc6c(c5)C(=O)N(C5CCC(=O)NC5=O)C6=O)CC4)CC3)cc2)c2ccc3[nH]ncc3c2)CC(C)(C)O1 (stereo not shown) [Compound 5] the DC50 (ERα) was < 10 nM and the GI50 (MCF-7 cells) was < 10 nM.
With CC1(C)CC(=C(c2ccc(N3CCC4(CC3)CC(N3CCN(c5ccc6c(c5)CN([C@@H]5CCC(=O)NC5=O)C6=O)CC3)C4)nc2)c2ccc3[nH]nc(F)c3c2)CC(C)(C)O1 [Compound 121] the DC50 (ERα) was < 10 nM and the GI50 (MCF-7 cells) was < 10 nM.
CC1(C)CC(=C(c2ccc(N3CCC(CN4CCN(c5ccc6c(c5)CN(C5CCC(=O)NC5=O)C6=O)CC4)CC3)nc2)c2ccc3[nH]nc(F)c3c2)CC(C)(C)O1 (racemic) [Compound 34] was tested, and the DC50 (ERα) was < 10 nM and the GI50 (MCF-7 cells) was < 10 nM.
In the case of CC1(C)CC(=C(c2ccc3[nH]nc(F)c3c2)c2c(F)cc(OC3CN(CC4CN(c5ccc6c(c5)C(=O)N(C5CCC(=O)NC5=O)C6=O)C4)C3)cc2F)CC(C)(C)O1 (stereo not shown) [Compound 26], the DC50 (ERα) is reported as < 10 nM.
CC1(C)CC(=C(c2ccc(N3CC4(CN(C(=O)CN5CCC(c6ccc(NC7CCC(=O)NC7=O)cc6F)CC5)C4)C3)nc2)c2ccc3[nH]nc(F)c3c2)CC(C)(C)O1 (stereo not shown) [Compound 84] was tested, and the DC50 (ERα) was > 100 nM.
For CC1(C)CC(=C(c2ccc3[nH]nc(F)c3c2)c2c(F)cc(OC3CN(C4CCN(c5ccc6c(c5)C(=O)N(C5CCC(=O)NC5=O)C6=O)CC4)C3)cc2F)CC(C)(C)O1 (stereo not shown) [Compound 25], the DC50 (ERα) was > 100 nM.
For CC1(C)CC(=C(c2ccc(N3CC4(CC(N5CCN(c6ccc7c(c6)CN(C6CCC(=O)NC6=O)C7=O)CC5)C4)C3)nc2)c2ccc3[nH]nc(F)c3c2)CC(C)(C)O1 (stereo not shown) [Compound 50], the DC50 (ERα) was > 100 nM.
CC1(C)CC(=C(c2ccc(N3CCC4(CC3)CC(N3CCN(c5ccc(C(=O)N[C@H]6CCC(=O)NC6=O)nc5)CC3)C4)nc2)c2ccc3[nH]nc(F)c3c2)CC(C)(C)O1 [Compound 129] was tested, and the DC50 (ERα) was 10 to 100 nM.
In the case of CC1(C)CC(=C(c2ccc(N3CC(CN4CCN(c5ccc6c(c5)C(=O)N(C5CCC(=O)NC5=O)C6=O)CC4)C3)cc2)c2ccc3[nH]nc(F)c3c2)CC(C)(C)O1 (stereo not shown) [Compound 17], the DC50 (ERα) is reported as > 100 nM.
CC1(C)CC(=C(c2ccc3[nH]nc(F)c3c2)c2c(F)cc(OC3CN(C4CN(c5ccc6c(c5)C(=O)N(C5CCC(=O)NC5=O)C6=O)C4)C3)cc2F)CC(C)(C)O1 (stereo not shown) [Compound 14] was tested, and the DC50 (ERα) was > 100 nM.
In the case of CC1(C)CC(=C(c2ccc(N3CCC4(CC3)CN(C(=O)CN3Cc5cc6c(cc5C3)C(=O)N(C3CCC(=O)NC3=O)C6=O)C4)nc2)c2ccc3[nH]nc(F)c3c2)CC(C)(C)O1 (stereo not shown) [Compound 74], the DC50 (ERα) is reported as > 100 nM.
In the case of Cn1nc(N2CCC(=O)NC2=O)c2ccc(C3CCN(CC(=O)N4CCN(c5ccc(C(=C6CC(C)(C)OC(C)(C)C6)c6ccc7[nH]nc(F)c7c6)cn5)CC4)CC3(F)F)cc21 (stereo not shown) [Compound 93], the DC50 (ERα) is reported as > 100 nM.
For CC1(C)CC(=C(c2ccc(N3CCC(N4CCN(c5ccc6c(c5)C(=O)N(C5CCC(=O)NC5=O)C6=O)CC4)CC3)nc2)c2ccc3[nH]nc(F)c3c2)CC(C)(C)O1 (stereo not shown) [Compound 104], the DC50 (ERα) was > 100 nM.
In the case of CC1(C)CC(=C(c2ccc(N3CCC4(CC3)CN(C3CCN(c5ccc6c(c5)CN([C@@H]5CCC(=O)NC5=O)C6=O)CC3)C4)nc2)c2ccc3[nH]nc(F)c3c2)CC(C)(C)O1 [Compound 140], the DC50 (ERα) is reported as < 10 nM.
CN(CC1CCN(c2ccc(C(=C3CC(C)(C)OC(C)(C)C3)c3ccc4[nH]nc(F)c4c3)cn2)CC1)C1CCN(c2cccn3c(N4CCC(=O)NC4=O)cnc23)CC1 [Compound 97] gave a DC50 (ERα) of 10 to 100 nM.
With CN(CC1CCN(c2ccc(C(=C3CC(C)(C)OC(C)(C)C3)c3ccc4[nH]nc(F)c4c3)cn2)CC1)C1CCN(c2ccn3c(N4CCC(=O)NC4=O)cnc3c2)CC1 [Compound 98] the DC50 (ERα) was > 100 nM.
With CC1(C)CC(=C(c2ccc(N3CC(N4CCN(c5ccc6c(c5)C(=O)N(C5CCC(=O)NC5=O)C6=O)CC4)C3)cc2)c2ccc3[nH]nc(F)c3c2)CC(C)(C)O1 (stereo not shown) [Compound 13] the DC50 (ERα) was > 100 nM.
With CC1(C)CC(=C(c2ccc(N3CCC(N4CCN(c5ccc(N6CCC(=O)NC6=O)cc5)CC4)CC3)cc2)c2ccc3[nH]nc(F)c3c2)CC(C)(C)O1 [Compound 78] the DC50 (ERα) was > 100 nM.
Work on CC1(C)CC(=C(c2ccc(N3CCC(CN4CCN(c5ccc(N6CCC(=O)NC6=O)cc5)CC4)CC3)cc2)c2ccc3[nH]nc(F)c3c2)CC(C)(C)O1 [Compound 76] yielded a DC50 (ERα) of 10 to 100 nM.
For CC1(C)CC(=C(c2ccc(N3CCN(CC4CCN(c5ccc6c(c5)C(=O)N(C5CCC(=O)NC5=O)C6=O)CC4)CC3)nc2)c2ccc3[nH]nc(F)c3c2)CC(C)(C)O1 (stereo not shown) [Compound 4], the DC50 (ERα) was > 100 nM.
With Cn1nc(N2CCC(=O)NC2=O)c2ccc(C3CCN(CC(=O)N4CCN(c5ccc(C(=C6CC(C)(C)OC(C)(C)C6)c6ccc7[nH]nc(F)c7c6)cn5)CC4)CC3)cc21 [Compound 92] the DC50 (ERα) was > 100 nM.
CC1(C)CC(=C(c2ccc(N3CCC(CN4CCN(c5ccc6c(c5)CN(C5CCC(=O)NC5=O)C6=O)CC4)CC3)nc2)c2cccc(O)c2)CC(C)(C)O1 (stereo not shown) [Compound 114] showed a DC50 (ERα) of 10 to 100 nM.
In the case of CC1(C)CC(=C(c2ccc(N3CCN(C[C@@H]4[C@H]5CN(c6ccc7c(c6)CN(C6CCC(=O)NC6=O)C7=O)C[C@@H]45)CC3)nc2)c2ccc3[nH]nc(F)c3c2)CC(C)(C)O1 (stereo partly shown) [Compound 52], the DC50 (ERα) is reported as > 100 nM.
CC1(C)CC(=C(c2ccc(N3CCC(CN4CCN(c5ccc6c(c5)CN(C5CCC(=O)NC5=O)C6=O)CC4)CC3)nc2)c2ccc3c(F)n[nH]c3c2)CC(C)(C)O1 (stereo not shown) [Compound 112] gave a DC50 (ERα) of 10 to 100 nM.
Cn1nc(N2CCC(=O)NC2=O)c2ccc(C3CCN(CC(=O)N4CC5(C4)CN(c4ccc(C(=C6CC(C)(C)OC(C)(C)C6)c6ccc7[nH]nc(F)c7c6)cn4)C5)CC3)cc21 [Compound 95] was tested, and the DC50 (ERα) was > 100 nM.
